# Experimental data reported in US6482438B1, “Apparatus and process for preparing crystalline particles” (SmithKline Beecham Corporation, priority 1998, dated 2002).
# Experiments:
# [1] = Malvern laser diffraction particle sizing (Mastersizer X) of crystalline fluticasone propionate particles; type: physicochemical
# Protocol: A continuous flow reaction cell with 2 diametrically opposite inlets at the bottom and a run-out ca. half way up the side of the vessel is used in the experiment. The drug substance (fluticasone propionate, FP) is dissolved in acetone (15 vol, 0.133 M) at elevated temperature (50-56° C.) and then allowed to cool to ambient temperature (20° C.). A solution of FP is then pumped using a peristaltic pump into one of the bottom inlets of the reaction cell. Water was similarly pumped via the other inlet from a water reservoir using a second pump.
# Re-crystallisations are carried out from various mixtures of acetone and water (by altering the flow rates of each) as dictated by the parameters set out in the experimental design. Efficient mixing of the two streams is ensured with the aid of a non-grinding magnetic stirrer bar.
# (§1) Before carrying out any particular crystallisation, the cell is pre-charged with a mixture of acetone/water (the ratio of each being the same as the relative pumping rates from the two reservoirs). By doing this, the relative concentrations of the water to acetone remains constant throughout the crystallisation. The tip of the sono-probe is arranged so that it is just above the inlet for the FP solution. When the magnetic stirrer, sono-probe and pumps are turned on, rapid onset of crystallisation takes place. A suspension of the crystallisation mixture exits via the overflow directly on to a filter funnel thus minimising the opportunity for further crystal growth.
# (§2) Using the above set-up, the experiments set out in the experimental design shown below were carried out and the samples of damp solid harvested and dried in vacuo at ambient temperature. All the samples were sized using the Malvern laser diffraction particle sizer and the results analysed using multi-dimensional model fitting software (such as Design Expert 5).
# Ultrasound Power is given as a percentage of maximum (50 W). Ultrasound frequency was 22 kHz.
# (§3) Samples were analysed using Malvern laser diffraction particle sizing.
# Instrument: Malvern Mastersizer X
# Lens: 45 mm Reverse Fourier
# Analysis: 0607 presentation code
# (§4) Dispersant: Iso Octane / Lecithin 0.05% w/w
# Pre dispersion: Sonicate for 10 seconds
# One analysis per sample was carried out. The median particle size (D50), particle size at 90% undersize (D90) and particle size at 10% undersize (D10) were used as responses to characterise the medium, course, and fine particles. In addition a fourth response, uniformity index (Ul) was calculated as a measure of the breadth of the distribution.
# Uniformity Index (Ul) is calculated as 100×D10/D90.
# [2] = Malvern laser diffraction particle sizing (Mastersizer S) of crystalline salmeterol xinafoate particles; type: physicochemical; conditions: methanol solution 7 ml/min
# Protocol: A continuous flow reaction cell with 2 diametrically opposite inlets at the bottom and a run-out ca. half way up the side of the vessel is used in the experiment. […] The drug substance (salmeterol xinafoate) is dissolved in methanol (6 vol) at elevated temperature
# (65° C.). A solution of salmeterol xinafoate (0.276 M) is then pumped (a fixed rate of 7 ml/min) using a peristaltic pump into one of the bottom inlets of the reaction cell. Cold water was similarly pumped via the other inlet from a water reservoir using a second pump at rates as dictated by the experimental design.
# Re-crystallisations are carried out from various mixtures of methanol and water as dictated by the parameters set out in the experimental design. Efficient mixing of the two streams is ensured with the aid of a non-grinding magnetic stirrer bar. The stirrer speed is maintained constant at all times. The stir speed is set at such a rate so as to induce a minimum amount of vortex.
# as §1, with “methanol/water” for “acetone/water”, “methanol” for “acetone”, “salmeterol” for “FP”
# as §2
# Ultrasound Power is given as a percentage of maximum (600 W). Ultrasound frequency was 22 kHz.
# as §3
# Instrument: Malvern Mastersizer S
# Lens: 300 mm Reverse Fourier
# Analysis: presentation code 30 GE
# as §4
# Pre dispersion: Sonicate for 1 Minute
# One analysis per sample was carried out. The median particle size (D50), particle size at 90% undersize (D90) and particle size at 10 % undersize (D10) were used as responses to characterise the medium, course, and fine particles. In addition a fourth response, uniformity index (Ul) was calculated as a measure of the breadth of the distribution.
# Uniformity Index (Ul) is calculated as 100×D 10/D90.
# [3] = Run 1: water 24 ml/min, acetone solution 3.50 ml/min, stirring 40.00 %, ultrasound 0.00 % of 50 W
# [4] = Run 2: water 18 ml/min, acetone solution 5.25 ml/min, stirring 20.00 %, ultrasound 20.00 % of 50 W
# [5] = Run 3: water 24 ml/min, acetone solution 3.50 ml/min, stirring 0.00 %, ultrasound 40.00 % of 50 W
# [6] = Run 4: water 12 ml/min, acetone solution 7.00 ml/min, stirring 0.00 %, ultrasound 40.00 % of 50 W
# [7] = Run 5: water 24 ml/min, acetone solution 7.00 ml/min, stirring 40.00 %, ultrasound 40.00 % of 50 W
# [8] = Run 6: water 18 ml/min, acetone solution 5.25 ml/min, stirring 20.00 %, ultrasound 20.00 % of 50 W
# [9] = Run 7: water 12 ml/min, acetone solution 3.50 ml/min, stirring 0.00 %, ultrasound 0.00 % of 50 W
# [10] = Run 8: water 12 ml/min, acetone solution 7.00 ml/min, stirring 40.00 %, ultrasound 0.00 % of 50 W
# [11] = Run 9: water 12 ml/min, acetone solution 3.50 ml/min, stirring 40.00 %, ultrasound 40.00 % of 50 W
# [12] = Run 10: water 24 ml/min, acetone solution 7.00 ml/min, stirring 0.00 %, ultrasound 0.00 % of 50 W
# [13] = Run 1: water 14 ml/min, ultrasound 10.00 % of 600 W
# [14] = Run 2: water 56 ml/min, ultrasound 10.00 % of 600 W
# [15] = Run 3: water 56 ml/min, ultrasound 90.00 % of 600 W
# [16] = Run 4: water 56 ml/min, ultrasound 90.00 % of 600 W
# [17] = Run 5: water 56 ml/min, ultrasound 10.00 % of 600 W
# [18] = Run 6: water 14 ml/min, ultrasound 10.00 % of 600 W
# [19] = Run 7: water 35 ml/min, ultrasound 50.00 % of 600 W
# [20] = Run 8: water 14 ml/min, ultrasound 90.00 % of 600 W
# [21] = Run 9: water 35 ml/min, ultrasound 50.00 % of 600 W
# [22] = Run 10: water 14 ml/min, ultrasound 90.00 % of 600 W
structure (smiles),measurement,setting,value
CCC(=O)O[C@]1(C(=O)SCF)[C@H](C)C[C@H]2[C@@H]3C[C@H](F)C4=CC(=O)C=C[C@]4(C)[C@@]3(F)[C@@H](O)C[C@@]21C [fluticasone propionate],D10 particle size at 10% undersize,[1]; [3],1.07 μm
same,D50 median particle size,[1]; [3],4.95 μm
same,D90 particle size at 90% undersize,[1]; [3],18.91 μm
same,UI uniformity index (100×D10/D90),[1]; [3],5.7%
same,D10 particle size at 10% undersize,[1]; [4],1.02 μm
same,D50 median particle size,[1]; [4],4.56 μm
same,D90 particle size at 90% undersize,[1]; [4],14.29 μm
same,UI uniformity index (100×D10/D90),[1]; [4],7.1%
same,D10 particle size at 10% undersize,[1]; [5],1 μm
same,D50 median particle size,[1]; [5],4.2 μm
same,D90 particle size at 90% undersize,[1]; [5],18.3 μm
same,UI uniformity index (100×D10/D90),[1]; [5],5.3%
same,D10 particle size at 10% undersize,[1]; [6],2.62 μm
same,D50 median particle size,[1]; [6],7.52 μm
same,D90 particle size at 90% undersize,[1]; [6],20.83 μm
same,UI uniformity index (100×D10/D90),[1]; [6],12.6%
same,D10 particle size at 10% undersize,[1]; [7],1.05 μm
same,D50 median particle size,[1]; [7],4.3 μm
same,D90 particle size at 90% undersize,[1]; [7],14.66 μm
same,UI uniformity index (100×D10/D90),[1]; [7],7.2%
same,D10 particle size at 10% undersize,[1]; [8],0.89 μm
same,D50 median particle size,[1]; [8],5.28 μm
same,D90 particle size at 90% undersize,[1]; [8],17.16 μm
same,UI uniformity index (100×D10/D90),[1]; [8],5.1%
same,D10 particle size at 10% undersize,[1]; [9],2.32 μm
same,D50 median particle size,[1]; [9],9.34 μm
same,D90 particle size at 90% undersize,[1]; [9],28.97 μm
same,UI uniformity index (100×D10/D90),[1]; [9],8%
same,D10 particle size at 10% undersize,[1]; [10],1.06 μm
same,D50 median particle size,[1]; [10],3.46 μm
same,D90 particle size at 90% undersize,[1]; [10],9.33 μm
same,UI uniformity index (100×D10/D90),[1]; [10],11.4%
same,D10 particle size at 10% undersize,[1]; [11],0.97 μm
same,D50 median particle size,[1]; [11],3.67 μm
same,D90 particle size at 90% undersize,[1]; [11],11.47 μm
same,UI uniformity index (100×D10/D90),[1]; [11],8.5%
same,D10 particle size at 10% undersize,[1]; [12],1.48 μm
same,D50 median particle size,[1]; [12],9.79 μm
same,D90 particle size at 90% undersize,[1]; [12],37.62 μm
same,UI uniformity index (100×D10/D90),[1]; [12],3.9%
OCc1cc(C(O)CNCCCCCCOCCCCc2ccccc2)ccc1O (centres unmarked) [salmeterol xinafoate],D10 particle size at 10% undersize,[2]; [13],1.6 μm
same,D50 median particle size,[2]; [13],10.1 μm
same,D90 particle size at 90% undersize,[2]; [13],24.78 μm
same,UI uniformity index (100×D10/D90),[2]; [13],6.46%
same,D10 particle size at 10% undersize,[2]; [14],0.48 μm
same,D50 median particle size,[2]; [14],3.9 μm
same,D90 particle size at 90% undersize,[2]; [14],10.21 μm
same,UI uniformity index (100×D10/D90),[2]; [14],4.70%
same,D10 particle size at 10% undersize,[2]; [15],0.64 μm
same,D50 median particle size,[2]; [15],4.24 μm
same,D90 particle size at 90% undersize,[2]; [15],14.45 μm
same,UI uniformity index (100×D10/D90),[2]; [15],4.42%
same,D10 particle size at 10% undersize,[2]; [16],0.53 μm
same,D50 median particle size,[2]; [16],4.29 μm
same,D90 particle size at 90% undersize,[2]; [16],17.62 μm
same,UI uniformity index (100×D10/D90),[2]; [16],3.01%
same,D10 particle size at 10% undersize,[2]; [17],0.39 μm
same,D50 median particle size,[2]; [17],4.74 μm
same,D90 particle size at 90% undersize,[2]; [17],16.8 μm
same,UI uniformity index (100×D10/D90),[2]; [17],2.32%
same,D10 particle size at 10% undersize,[2]; [18],2.17 μm
same,D50 median particle size,[2]; [18],11.09 μm
same,D90 particle size at 90% undersize,[2]; [18],23.37 μm
same,UI uniformity index (100×D10/D90),[2]; [18],9.28%
same,D10 particle size at 10% undersize,[2]; [19],1.08 μm
same,D50 median particle size,[2]; [19],4.75 μm
same,D90 particle size at 90% undersize,[2]; [19],13.45 μm
same,UI uniformity index (100×D10/D90),[2]; [19],8.03%
same,D10 particle size at 10% undersize,[2]; [20],1.63 μm
same,D50 median particle size,[2]; [20],6.37 μm
same,D90 particle size at 90% undersize,[2]; [20],20.37 μm
same,UI uniformity index (100×D10/D90),[2]; [20],8.00%
same,D10 particle size at 10% undersize,[2]; [21],1.88 μm
same,D50 median particle size,[2]; [21],4.99 μm
same,D90 particle size at 90% undersize,[2]; [21],11.76 μm
same,UI uniformity index (100×D10/D90),[2]; [21],15.99%
same,D10 particle size at 10% undersize,[2]; [22],1.77 μm
same,D50 median particle size,[2]; [22],7.86 μm
same,D90 particle size at 90% undersize,[2]; [22],24.96 μm
same,UI uniformity index (100×D10/D90),[2]; [22],7.09%
